In patent US11168084B2, “Purine based compounds as toll-like receptor 9 antagonist” (COUNCIL OF SCIENTIFIC & INDUSTRIAL RESEARCH, priority 2017, dated 2021):

What follows are compounds tested against T1, toll-like receptor 9 (TLR9) (Homo sapiens, UniProt Q9NR96) (assay: Screening of TLR9 antagonistic activity: IFN-alpha production from human PBMC in response to CpGA (ELISA)). Conditions: TLR9 antagonism; Table 2 does not say which of the three TLR9 assays.
T1 construct: we isolated PBMCs from venous blood collected from healthy donors using density gradient centrifugation; endogenous in cells; host or cells: primary human PBMC (plasmacytoid dendritic cells) from healthy donors
T1 sequence (Q9NR96 26-1032): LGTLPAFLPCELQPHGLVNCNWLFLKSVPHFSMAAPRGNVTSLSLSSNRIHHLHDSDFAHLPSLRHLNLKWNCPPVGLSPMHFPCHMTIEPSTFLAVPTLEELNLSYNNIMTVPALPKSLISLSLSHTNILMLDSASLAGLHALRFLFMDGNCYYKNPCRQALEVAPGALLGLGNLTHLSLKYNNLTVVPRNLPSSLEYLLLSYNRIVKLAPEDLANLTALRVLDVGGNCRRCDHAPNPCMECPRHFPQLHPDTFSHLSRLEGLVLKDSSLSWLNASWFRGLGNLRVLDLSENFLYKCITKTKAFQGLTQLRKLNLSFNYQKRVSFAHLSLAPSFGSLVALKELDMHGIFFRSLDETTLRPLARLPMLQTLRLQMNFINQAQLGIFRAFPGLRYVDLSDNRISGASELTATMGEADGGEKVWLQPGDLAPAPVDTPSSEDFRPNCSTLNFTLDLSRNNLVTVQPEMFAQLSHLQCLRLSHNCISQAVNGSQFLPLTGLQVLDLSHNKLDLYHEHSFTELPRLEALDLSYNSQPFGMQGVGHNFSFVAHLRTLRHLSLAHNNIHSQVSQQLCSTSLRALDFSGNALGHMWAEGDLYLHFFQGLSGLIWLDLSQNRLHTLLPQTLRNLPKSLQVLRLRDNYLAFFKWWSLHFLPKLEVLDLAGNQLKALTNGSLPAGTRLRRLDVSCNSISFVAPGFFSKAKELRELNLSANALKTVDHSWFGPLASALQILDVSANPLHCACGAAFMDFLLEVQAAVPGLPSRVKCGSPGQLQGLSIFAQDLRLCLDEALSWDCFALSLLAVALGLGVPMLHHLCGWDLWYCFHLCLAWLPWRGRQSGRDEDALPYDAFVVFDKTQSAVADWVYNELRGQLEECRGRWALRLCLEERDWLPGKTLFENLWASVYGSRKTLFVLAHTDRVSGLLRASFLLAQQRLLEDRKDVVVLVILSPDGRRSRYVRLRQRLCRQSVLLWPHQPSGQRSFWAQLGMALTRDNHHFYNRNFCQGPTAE
Format: cell-based
Source text: The principle of the screening assay was designed based on the production of Type I interferons (IFN-alpha) from human PBMCs, which results almost exclusively from TLR9 triggering on the PDCs by type A CpG oligonucleotides (CpGA). PBMCs were isolated from venous blood collected from healthy donors using density gradient centrifugation.
A medium throughput biological assay based on toll-like receptor 9 activation has been designed in primary human immune cells to screen the synthesized small molecules with general formula (I) for toll-like receptor 9 (TLR9) antagonism. Among the immune cell subsets circulating in the peripheral blood, two cell subsets plasmacytoid dendritic cells (PDCs) and B lymphocytes has significant expression of TLR9. Plasmacytoid dendritic cells are capable of producing type I interferons (e.g. IFN-alpha) in response to TLR9 ligands. Type A and type B unmethylated cytosine-guanine rich DNA oligonucleotides (CpG oligonucleotides) are the bonafide ligands for TLR9.
In the screening assay we isolated PBMCs from venous blood collected from healthy donors using density gradient centrifugation. PBMCs were cultured the at 2-3*10^5 cells/200 ul/well in a 96 well plate. TLR9 agonist CpGA was added at 1 uM in presence of escalating doses of the synthesized small molecules (0 uM, 0.1 uM, 1 uM, 5 uM, 10 uM and 20 uM). The supernatants was collected after overnight culture from the culture wells and looked for IFN-alpha using enzyme linked immunosorbent assay (ELISA). […] For the biological validation of TLR9 antagonism the bona fide TLR9 agonist CpG oligonucleotides were used.

| IC50 | Compound |
| --- | --- |
| 188 nM | CCN1CCN(CCCn2cnc3c(N4CCN(CC)CC4)nc(N)nc32)CC1 [Compound 4, 6-(4-ethylpiperazin-1-yl)-9-(3-(4-ethylpiperazin-1-yl)propyl)-9H-purin-2-amine] |
| 241 nM | COc1ccc(CNc2nc(N3CCN(C4CCCC4)CC3)c3ncn(CCCN4CCCC4)c3n2)cc1 [Compound 30, 6-(4-cyclopentylpiperazin-1-yl)-N-(4-methoxybenzyl)-9-(3-(pyrrolidin-1-yl)propyl)-9H-purin-2-amine] |
| 100 nM | Fc1ccc(CNc2nc(N3CCN(C4CCCC4)CC3)c3ncn(CCCN4CCCC4)c3n2)cc1 [Compound 32, 6-(4-cyclopentylpiperazin-1-yl)-N-(4-fluorobenzyl)-9-(3-(pyrrolidin-1-yl)propyl)-9H-purin-2-amine] |
| 438 nM | CCN1CCN(CCCn2cnc3c(N4CCN(CC)CC4)nc(NCc4ccc(N(CC)CC)cc4)nc32)CC1 [Compound 7, N-(4-(diethylamino)benzyl)-6-(4-ethylpiperazin-1-yl)-9-(3-(4-ethylpiperazin-1-yl)propyl)-9H-purin-2-amine] |
| 145 nM | CCN1CCN(CCCn2cnc3c(N4CCN(C5CCCC5)CC4)nc(NCc4ccc(N(CC)CC)cc4)nc32)CC1 [Compound 24] |
| 140 nM | CCN1CCN(CCCn2cnc3c(N4CCN(CC)CC4)nc(NCc4ccccc4)nc32)CC1 [Compound 8, N-benzyl-6-(4-ethylpiperazin-1-yl)-9-(3-(4-ethylpiperazin-1-yl)propyl)-9H-purin-2-amine] |
| 80 nM | CCN1CCN(c2nc(NCc3ccc(OC)cc3)nc3c2ncn3CCCN2CCCC2)CC1 [Compound 34, 6-(4-ethylpiperazin-1-yl)-N-(4-methoxybenzyl)-9-(3-(pyrrolidin-1-yl)propyl)-9H-purin-2-amine] |
| 378 nM | CCN1CCN(CCCn2cnc3c(N4CCN(CC)CC4)nc(NC(=O)C4CCCN4)nc32)CC1 (stereo not shown) [Compound 12, N-(6-(4-ethylpiperazin-1-yl)-9-(3-(4-ethylpiperazin-1-yl)propyl)-9H-purin-2-yl) pyrrolidine-2-carboxamide] |
| 470 nM | CCN1CCN(CCCn2cnc3c(N4CCN(CC)CC4)nc(NCc4ccc(F)cc4)nc32)CC1 [Compound 6, 6-(4-ethylpiperazin-1-yl)-9-(3-(4-ethylpiperazin-1-yl)propyl)-N-(4-fluorobenzyl)-9H-purin-2-amine] |
| 8800 nM | CCN1CCN(CCCn2cnc3c(N4CCN(C(=O)C5CCCC5)CC4)nc(NCc4ccc(N(CC)CC)cc4)nc32)CC1 [Compound 38, Cyclopentyl(4-(2-(4-(diethylamino)benzylamino)-9-(3-(4-ethylpiperazin-1-yl)propyl)-9H-purin-6-yl)piperazin-1-yl)methanone] |

Second part, the compound before the results:

| Compound | IC50 |
| --- | --- |
| CCN1CCN(CCCn2cnc3c(N4CCN(CC)CC4)nc(N4CCCC4)nc32)CC1 [Compound 9] | 1830 nM |
| CCN1CCN(CCCn2cnc3c(N4CCN(C5CCCC5)CC4)nc(NCc4ccc(OC)cc4)nc32)CC1 [Compound 26, 6-(4-cyclopentylpiperazin-1-yl)-9-(3-(4-ethylpiperazin-1-yl)propyl)-N-(4-methoxybenzyl)-9H-purin-2-amine] | 120 nM |
| CCN1CCN(CCCn2cnc3c(N4CCN(C5CCCC5)CC4)nc(NCc4ccc(F)cc4)nc32)CC1 [Compound 25, 6-(4-cyclopentylpiperazin-1-yl)-9-(3-(4-ethylpiperazin-1-yl)propyl)-N-(4-fluorobenzyl)-9H-purin-2-amine] | 254 nM |
| Iso-butyl(1-(6-(4-ethylpiperazin-1-yl)-9-(3-(4-ethylpiperazin-1-yl)propyl)-9H-purin-2-yl)amino)-1-oxo-3-phenylpropan-2-yl)carbamate [Compound 15] | 470 nM |
| CCN1CCN(CCCn2cnc3c(N4CCN(CC)CC4)nc(NC(=O)c4ccccc4)nc32)CC1 [Compound 10, N-(6-(4-ethylpiperazin-1-yl)-9-(3-(4-ethylpiperazin-1-yl)propyl)-9H-purin-2-yl)benzamide] | 339 nM |
| Nc1nc(N2CCN(C3CCCC3)CC2)c2ncn(CCCN3CCCC3)c2n1 [Compound 29, 6-(4-cyclopentylpiperazin-1-yl)-9-(3-(pyrrolidin-1-yl)propyl)-9H-purin-2-amine] | 122 nM |
| CCN1CCN(CCCn2cnc3c(N4CCN(C5CCCC5)CC4)nc(NC(=O)c4ccc(CN(C)C)cc4)nc32)CC1 [Compound 27, N-(6-(4-cyclopentylpiperazin-1-yl)-9-(3-(4-ethylpiperazin-1-yl)propyl)-9H-purin-2-yl)-4-((dimethylamino)methyl)benzamide] | 56 nM |
| CN(C)Cc1ccc(C(=O)Nc2nc(N3CCN(C4CCCC4)CC3)c3ncn(CCCN4CCCC4)c3n2)cc1 [Compound 31, N-(6-(4-cyclopentylpiperazin-1-yl)-9-(3-(pyrrolidin-1-yl)propyl)-9H-purin-2-yl)-4-((dimethylamino)methyl)benzamide] | 5 nM |
| CCN1CCN(CCCn2cnc3c(N4CCN(CC)CC4)nc(NCc4ccc(OC)cc4)nc32)CC1 [Compound 5, 6-(4-ethylpiperazin-1-yl)-9-(3-(4-ethylpiperazin-1-yl)propyl)-N-(4-methoxybenzyl)-9H-purin-2-amine] | 203 nM |
